According to patent publication US20250206707A1, “NOVEL COMPOUND INDUCING EXPRESSION OF ANTI-AGING GENE KLOTHO” (KLOTHO SCIENCES CO., LTD., priority 2022, published 2025):

Assays:
[1] = system: TXN, AKT1, NR4A3, NLRP3, FOXP3 genes; assay: Expression changes in oxidative stress-related genes (NGS) in aged RPTEC cells; type: cell-based, human; details: 7th passage RPTEC, 2.5 μM, 6 hours, compared with 4-passage RPTEC, FIG. 5, FIG. 6
Procedure: 2.5 μM of each KS compound of Example 1 was added to relatively aged 7th passage (#7) renal tubular epithelial cells (RPTEC) cells, cultured for 6 hours, mRNA was collected, and total gene expression was analyzed using a next generation sequencer (NGS). To confirm changes in gene expression due to aging, through gene expression comparison with relatively young 4-passage (#4) RPTEC cells, genes with increased expression in young cells (TXN, AKT1, NR4A3, NLRP3, FOXP3 genes) were confirmed. The expression levels of these genes in young cells were compared to the expression change values caused by treatment with the compounds of Example 1 (senescent cells were treated with the compounds of Example 1, respectively).

[2] = system: intracellular reactive oxygen species (ROS) in renal tubule epithelial cells (RPTECs); assay: Analysis of intracellular reactive oxygen species (ROS) in RPTECs; type: cell-based, human; details: RPTEC cells, 2.5 µM compound, 6 h; FIG. 4
Procedure: Renal tubule epithelial cells (RPTECs) were treated with each KS compound of Example 1 to determine the changes in the amount of intracellular reactive oxygen species (ROS).
RPTEC cells in culture were incubated with 2.5 µM of each KS compound for 6 h. The amount of ROS present in the cells was measured by adding Reactive Oxygen Detection Reagents (Invitrogen) and incubating for 1 h. The change in fluorescence was measured using a spectrophotometer.
FIG. 4 is a graph showing the amount of ROS remaining in RPTEC cells. It was confirmed that the amount of ROS in the cells treated with KS103 and KS104 compounds was reduced by about 30% compared to the cells treated with solvent (DMSO) alone.

[3] = system: Human retinal epithelial cells (ARPE); assay: Cytotoxicity evaluation (EX-cytox absorbance); type: cell-based; details: different concentrations, 24 hours incubation, EX-cytox 1 hour, FIG. 3
Procedure: Human retinal epithelial cells (ARPE) in culture were treated with KS compounds of Example 1 at different concentrations and incubated for 24 hours, followed by a 1-hour reaction with EX-cytox from GOGEN, and the change in absorbance was measured.

klotho gene = assay: Klotho gene mRNA expression by PCR in RPTECs; type: cell-based, human; details: 6 hours exposure, FIG. 2
Procedure: Human renal tubular epithelial cells (RPTECs) were treated with each KS compound of Example 1 at different concentrations, and mRNA was collected from the cells 6 hours later, and the mRNA expression of the klotho gene was confirmed by PCR. Renal Proximal Tubular Epithelial Cells (RPTECs) were purchased from Lonza and cultured at 37° C., 5% CO2 and used in the experiments. Each KS compound was added to the medium of the cells and after 6 hours of exposure, RNA was isolated from the cells and converted to cDNA using reverse transcriptase and amplified by PCR method to determine the expression level. As a control, DMSO was added instead of the compound.
The primers used in the experiment are listed below.
The expression levels of the bands in the gel photographs were quantified using Image J and plotted on a graph. In the gel picture, the upper band represents the secreted form of klotho, and the lower band represents the membrane form of klotho.

[4] = system: human retinal pigment epithelial cells (ARPE); assay: Protective effect on retinal pigment epithelial cells against oxidative stress; type: cell-based; details: 2.5 μM compound, BSO 50 mM for 6 hours, Cyto X absorbance 450 nm, FIG. 7
Procedure: To determine the preventive or therapeutic effect of each KS compound of Example 1 on macular degeneration, the protection of retinal pigment epithelial cells against oxidative stress was determined.
First, human retinal pigment epithelial cells were tested using retinal pigment epithelial cells (ARPE) purchased from ATCC, USA. Equal numbers of 10,000 ARPE cells were added to each well, and after 18 hours of incubation, the cells were replaced with DMEM F-12 medium without serum (FBS).
Each KS compound was added at a concentration of 2.5 μM, and the cells were treated with buthionine sulfoximine (BSO) at a concentration of 50 mM for 6 hours to induce oxidative stress. To measure the viability of these cells, Cyto X (Cell viability assay kit) was added and the time-varying absorbance was measured at 450 nm.

[5] = Stability evaluation with human liver microsomes (MS/MS analysis); type: in vitro ADME; details: human microsomes 0.5 mg/ml, 1 μM compound, 30 min, 37° C., with NADPH; tolbutamide as control; FIG. 1
Procedure: Each KS compound in Example 1 was dissolved in 10 mM DMSO, and tolbutamide, used as a standard, was dissolved in methanol at a concentration of 10 mM.
In a glass test tube (13×100 mm), 0.1 M KH2PO4 (147.5 μl), 0.1 M MgCl2 (25 μl), and 50 μl of human […] microsomes (mixed-gender pool) at a concentration of 0.5 mg/ml purchased from Corning Life Science and each KS compound solution were mixed to a final 1 μM of each KS compound solution, pre-incubated for 3 min in a shaking water bath (37° C., 40 rpm), and then incubated for 30 min in the presence or absence of 10 mM NADPH, 25 μL.
Aliquots of 50 μl were taken before the reaction and after the reaction, and then the reaction was stopped by adding […] of acetonitrile and vortexed for 1 min. The mixture was centrifuged (4,000 rpm, 4° C.) for 20 minutes, and each supernatant was transferred to a new glass test tube and dried for 2 hours using a centrifugal concentrator. After ensuring complete drying, 200 μl of 40% acetonitrile was added to each glass test tube and resuspended by vortexing for 1 minute. The resuspension solution was centrifuged for 10 minutes (4,000 rpm, 4° C.) and 150 μl of the supernatant was taken for HPLC-UV analysis. The Agilent 1200 series was used for HPLC-UV analysis and the Agilent 6410 was used for MS/MS analysis. The conditions used for the analysis were as follows: […]

Compound	expression of oxidative stress-related genes in aged cells versus young cells [1]	reduction of the amount of ROS in the cells compared to cells treated with solvent (DMSO) alone [2]	cytotoxicity [3]	ability to express the klotho gene compared to KS101 as well as other fluorine-bound compounds (klotho gene)	expression effect on the klotho gene (mRNA, sum of secreted and membrane form bands) (klotho gene; different concentrations, Image J quantification)	protection against oxidative stress-induced cell death [4]	microsomal stability [5]
Fc1ccc(Nc2nc3cc(F)c(F)cc3o2)cc1F [KS104, N-(3,4-difluorophenyl)-5,6-difluorobenzo[d]oxazol-2-amine]	induced to a greater extent than in young cells	about 30%	lowest cytotoxicity	more than doubled	best expression effect	inhibited oxidative stress-induced cell death	best microsomal stability
Fc1ccc2nc(Nc3ccc(F)c(F)c3)oc2c1 [KS103, N-(3,4-difluorophenyl)-6-fluorobenzo[d]oxazol-2-amine]	–	about 30%	–	–	–	inhibited oxidative stress-induced cell death	–
